Source: US6642217B2, “Triterpenes having human antifungal and antiyeast activity” (Naturtek, LLC, priority 2000, dated 2003)

Assays:
[1] = test system: Pityrosporum ovale; assay: Direct addition into the Pityrosporum agar; format: cell-based; parameters: key to Pityrosporum ovale growth: +++: Maximum Growth; ++: Moderate Growth; +: Minimum Growth; +/−: Very Little Growth; −: No Growth; conditions: for Pityrosporum ovale growth: 4 mg/ml in the agar, 18 hours after inoculation
Protocol: Direct addition method. Sabouraud dextrose agar was prepared according to the manufacturer's instructions and 5.0 ml was dispensed in each 100×25 mm tube. The tubes were autoclaved. To each tube containing 5.0 ml of liquid agar at 45° C., 20 mg of solid test compound was added, to give a final concentration of 4 mg/ml. The agar was solidified in slants. The fungal cultures were then innoculated. […]

[2] = test system: Epidermophyton floccosum; assay: Direct addition method, solid compound in Sabouraud dextrose agar; format: cell-based; parameters: key: +++: Maximum Fungal Growth; ++: Moderate Fungal Growth; +: Minimum Fungal Growth; +/−: Very little Fungal Growth; −: No Fungal Growth; conditions: 4 mg/mL of agar; 12th day after inoculation
Protocol: (§1) Direct addition method. Sabouraud dextrose agar was prepared according to the manufacturer's instructions and 5.0 ml was dispensed in each 100×25 mm tube. The tubes were autoclaved. To each tube containing 5.0 ml of liquid agar at 45° C., 20 mg of solid test compound was added, to give a final concentration of 4 mg/ml. The agar was solidified in slants. The fungal cultures were then innoculated. The slants were incubated at 25-28 ° C. for 10-12 days, and the growth of the fungus was recorded every second day. The results in Table 2 indicate growth at the 12th day of inoculation.

[3] = test system: Trichophyton rubrum; assay: as above; format: cell-based; parameters: key: +++: Maximum Fungal Growth; ++: Moderate Fungal Growth; +: Minimum Fungal Growth; +/−: Very little Fungal Growth; −: No Fungal Growth; conditions: 4 mg/mL of agar; 12th day after inoculation
Protocol: as §1

[4] = test system: Pityrosporum ovale; assay: as above; format: cell-based; parameters: key: +++: Maximum Fungal Growth; ++: Moderate Fungal Growth; +: Minimum Fungal Growth; +/−: Very little Fungal Growth; −: No Fungal Growth; conditions: 4 mg/mL of agar; 12th day after inoculation
Protocol: as §1

[5] = test system: Microsporum canis; assay: as above; format: cell-based; parameters: key: +++: Maximum Fungal Growth; ++: Moderate Fungal Growth; +: Minimum Fungal Growth; +/−: Very little Fungal Growth; −: No Fungal Growth; conditions: 4 mg/mL of agar; 12th day after inoculation
Protocol: as §1

[6] = test system: Microsporum audouinni; assay: as above; format: cell-based, Microsporum audouinii; parameters: key to Fungal growth: +++: Maximum Fungal Growth; ++: Moderate Fungal Growth; +: Minimum Fungal Growth; +/−: Very little Fungal Growth; −: No Fungal Growth; conditions: for Fungal growth: 4 mg/mL of agar, 12th day after inoculation
Protocol: as §1

[7] = test system: Trichophyton mentagrophyte; assay: Agar dilution method, growth on Sabouraud dextrose agar slants; format: cell-based, Trichophyton mentagrophytes; parameters: key to Fungal growth: +++: Maximum Fungal Growth; ++: Moderate Fungal Growth; +: Minimum Fungal Growth; +/−: Very little Fungal Growth; −: No Fungal Growth; conditions: for Fungal growth: 12th day after inoculation
Protocol: (§2) Agar dilution method. Sabouraud Dextrose Agar (Difco Laboratories, Michigan) was prepared according to the manufacturer's instructions. Five ml was dispensed in a 100×25 mm tube and autoclaved. To each tube containing 5.0 ml of liquid agar at 45° C., 0.5, 0.25, 0.12, or 0.063 ml of a DMSO solution of the compound was added to give the final indicated concentrations in Table 2. The agar was then solidified in slants. Fungal cultures were inoculated. The slants were incubated at 25-28° C. for 10-12 days, and the growth of the fungus was recorded every second day.

[8] = test system: Trichophyton tonsuran; assay: as above; format: cell-based, Trichophyton tonsurans; parameters: key: +++: Maximum Fungal Growth; ++: Moderate Fungal Growth; +: Minimum Fungal Growth; +/−: Very little Fungal Growth; −: No Fungal Growth; conditions: 12th day after inoculation
Protocol: as §2

[9] = test system: Microsporum audouinni; assay: as above; format: cell-based, Microsporum audouinii; parameters: key: +++: Maximum Fungal Growth; ++: Moderate Fungal Growth; +: Minimum Fungal Growth; +/−: Very little Fungal Growth; −: No Fungal Growth; conditions: 12th day after inoculation
Protocol: as §2

[10] = test system: Microsporum gypseum; assay: as above; format: cell-based; parameters: key: +++: Maximum Fungal Growth; ++: Moderate Fungal Growth; +: Minimum Fungal Growth; +/−: Very little Fungal Growth; −: No Fungal Growth; conditions: 12th day after inoculation
Protocol: as §2

[11] = test system: Trichophyton rubrum; assay: as above; format: cell-based; parameters: key: +++: Maximum Fungal Growth; ++: Moderate Fungal Growth; +: Minimum Fungal Growth; +/−: Very little Fungal Growth; −: No Fungal Growth; conditions: 12th day after inoculation
Protocol: as §2

[12] = test system: Pityrosporum ovale; assay: as above; format: cell-based; parameters: key: +++: Maximum Fungal Growth; ++: Moderate Fungal Growth; +: Minimum Fungal Growth; +/−: Very little Fungal Growth; −: No Fungal Growth; conditions: 12th day after inoculation
Protocol: as §2

[13] = test system: Microsporum canis; assay: as above; format: cell-based; parameters: key: +++: Maximum Fungal Growth; ++: Moderate Fungal Growth; +: Minimum Fungal Growth; +/−: Very little Fungal Growth; −: No Fungal Growth; conditions: 12th day after inoculation
Protocol: as §2

[14] = test system: Epidermophyton floccosum; assay: as above; format: cell-based; parameters: key to Fungal growth: +++: Maximum Fungal Growth; ++: Moderate Fungal Growth; +: Minimum Fungal Growth; +/−: Very little Fungal Growth; −: No Fungal Growth; conditions: 12th day after inoculation
Protocol: as §2

[15] = test system: Microsporum audouinii; assay: Summary of anti-fungal assays (direct addition, agar dilution, liquid culture); format: cell-based; conditions: stated in words (Tables 1a/1b, text to Table 5)
Protocol: This example summarizes the results of various other assays of the anti-fungal activity of betulin derivatives. Table 5 summarizes results using different assay methods—direct addition, agar dilution, and direct addition to liquid culture, as disclosed in the previous three Examples. In some cases, only one type of assay was done with a compound. In other cases, the compound was tested by multiple assays.

Row | SMILES | Pityrosporum ovale growth [1] | Fungal growth [2] | Fungal growth [3] | Fungal growth [4] | Fungal growth [5] | Fungal growth [6] | Fungal growth ([7]; 125 μg/ml) | Fungal growth ([7]; 250 μg/ml) | Fungal growth ([7]; 500 μg/ml) | Fungal growth ([7]; 1000 μg/ml) | Fungal growth ([8]; 125 μg/ml) | Fungal growth ([8]; 250 μg/ml) | Fungal growth ([8]; 500 μg/ml) | Fungal growth ([8]; 1000 μg/ml) | Fungal growth ([9]; 125 μg/ml) | Fungal growth ([9]; 250 μg/ml) | Fungal growth ([9]; 500 μg/ml) | Fungal growth ([9]; 1000 μg/ml) | Fungal growth ([10]; 125 μg/ml) | Fungal growth ([10]; 250 μg/ml) | other results
1 | CC1(C)CCC23CCC4(C)C(CCC5C6(C)CCC(OC(=O)CN)C(C)(C)C6CCC54C)C2C1OC3 (stereo not shown) [Allobetulin-3-glycine] | + | − | ++ | − | + | + |  |  |  |  |  |  |  |  |  |  |  |  |  |  | 
2 | C=C(C)[C@@H]1CC[C@]2(COC(=O)COCC(=O)O)CC[C@]3(C)[C@H](CC[C@@H]4[C@@]5(C)CC[C@H](OC(=O)COCC(=O)O)C(C)(C)[C@@H]5CC[C@]43C)[C@@H]12 [Betulin-3,28-didiglycolate] |  |  |  |  |  |  | + | + | +/− | − | ++ | + | + | − | ++ | ++ | − | − | +++ | +++ | best antifungal or anti-yeast activity by the agar dilution method ([7]; against Trichophyton mentagrophytes): against Trichophyton mentagrophytes; Fungal growth ([10]; 500 μg/ml): ++; Fungal growth ([10]; 1000 μg/ml): −; Fungal growth ([11]; 125 μg/ml): ++; Fungal growth ([11]; 250 μg/ml): +; Fungal growth ([11]; 500 μg/ml): +; Fungal growth ([11]; 1000 μg/ml): −; Fungal growth ([12]; 125 μg/ml): +++; Fungal growth ([12]; 250 μg/ml): +++; Fungal growth ([12]; 500 μg/ml): ++; Fungal growth ([12]; 1000 μg/ml): +/−; Fungal growth ([13]; 125 μg/ml): +++; Fungal growth ([13]; 250 μg/ml): +++; Fungal growth ([13]; 500 μg/ml): +; Fungal growth ([13]; 1000 μg/ml): −; Fungal growth ([14]; 125 μg/ml): ++; Fungal growth ([14]; 250 μg/ml): +; Fungal growth ([14]; 500 μg/ml): −; Fungal growth ([14]; 1000 μg/ml): −
3 | C=C(C)[C@@H]1CC[C@]2(COC(=O)CCCC(=O)O)CC[C@]3(C)[C@H](CC[C@@H]4[C@@]5(C)CC[C@H](OC(=O)CCCC(=O)O)C(C)(C)[C@@H]5CC[C@]43C)[C@@H]12 [Betulin-3,28-diglutarate] | +/− | − | + | − | + | + |  |  |  |  |  |  |  |  |  |  |  |  |  |  | Growth inhibition of Pityrosporum ovale by the direct addition method ([1]; 4 mg/ml): inhibited the growth
4 | C=C(C)[C@@H]1CC[C@]2(COC(=O)/C=C\C(=O)O)CC[C@]3(C)[C@H](CC[C@@H]4[C@@]5(C)CC[C@H](OC(=O)/C=C\C(=O)O)C(C)(C)[C@@H]5CC[C@]43C)[C@@H]12 [Betulin-3,28-dimaleate] | + | − | + | − | + | − |  |  |  |  |  |  |  |  |  |  |  |  |  |  | Active against Microsporum audouinii [15]: Microsporum audouinii; best anti-fungal or anti-yeast activity by the direct addition method ([6]; against Microsporum audouinii): against Microsporum audouinii
5 | C=C(C)C1CCC2(CO)CCC3(C)C(CCC4C5(C)CCC(OC(=O)C=CC(=O)O)C(C)(C)C5CCC43C)C12 (stereo not shown) [Betulin-3-maleate] |  |  |  |  |  |  | ++ | + | +/− | − | ++ | ++ | + | − | +/− | +/− | − | − | +++ | ++ | Fungal growth ([10]; 500 μg/ml): ++; Fungal growth ([10]; 1000 μg/ml): −; Fungal growth ([11]; 125 μg/ml): ++; Fungal growth ([11]; 250 μg/ml): ++; Fungal growth ([11]; 500 μg/ml): +; Fungal growth ([11]; 1000 μg/ml): −; Fungal growth ([12]; 125 μg/ml): +++; Fungal growth ([12]; 250 μg/ml): +++; Fungal growth ([12]; 500 μg/ml): ++; Fungal growth ([12]; 1000 μg/ml): +/−; Fungal growth ([13]; 125 μg/ml): +; Fungal growth ([13]; 250 μg/ml): +/−; Fungal growth ([13]; 500 μg/ml): +/−; Fungal growth ([13]; 1000 μg/ml): −; Fungal growth ([14]; 125 μg/ml): ++; Fungal growth ([14]; 250 μg/ml): +; Fungal growth ([14]; 500 μg/ml): −; Fungal growth ([14]; 1000 μg/ml): −
6 | COC1=CC(=O)C[C@@H](C)[C@]12Oc1c(Cl)c(OC)cc(OC)c1C2=O [Griseofulvin, reference compound] | + | − | − | − | − | − | ++ | + | − | − | +/− | +/− | − | − | − | − | − | − | +/− | +/− | Fungal growth ([10]; 500 μg/ml): −; Fungal growth ([10]; 1000 μg/ml): −; Fungal growth ([11]; 125 μg/ml): +/−; Fungal growth ([11]; 250 μg/ml): +/−; Fungal growth ([11]; 500 μg/ml): −; Fungal growth ([11]; 1000 μg/ml): −; Fungal growth ([12]; 125 μg/ml): +++; Fungal growth ([12]; 250 μg/ml): +++; Fungal growth ([12]; 500 μg/ml): ++; Fungal growth ([12]; 1000 μg/ml): −; Fungal growth ([13]; 125 μg/ml): +/−; Fungal growth ([13]; 250 μg/ml): +/−; Fungal growth ([13]; 500 μg/ml): −; Fungal growth ([13]; 1000 μg/ml): −; Fungal growth ([14]; 125 μg/ml): ++; Fungal growth ([14]; 250 μg/ml): +; Fungal growth ([14]; 500 μg/ml): −; Fungal growth ([14]; 1000 μg/ml): −
7 | C=C(C)C1CCC2(C)CCC3(C)C(CCC4C5(C)CCC(OC(=O)CCC(=O)O)C(C)(C)C5CCC43C)C12 (stereo not shown) [Lupeol-3-succinate] | + | − | + | − | + | + |  |  |  |  |  |  |  |  |  |  |  |  |  |  | 
